Results: paper PMC11994961, “In Vivo pharmacokinetic interactions of ribociclib with rivaroxaban and apixaban in rats: implications for increased drug exposure and dose adjustments” (Frontiers in Pharmacology, 2025)

Assays:
[1] = system: Cyp3a1(CYP3A4) mRNA in the liver; experiment: qRT-PCR mRNA expression in rat liver after ribociclib; type: in vivo; conditions: rats, ribociclib continuously for 8 days
Excerpt: qRT-PCR analysis was used to determine the mRNA levels of Cyp3a1(CYP3A4) in the liver and Abcb1a (P-gp), Cyp3a1(CYP3A4), Abcg2(BCRP) in the intestines. Total RNA was extracted from frozen liver and intestine samples using the TRNzol Universal reagent, following the manufacturer’s instructions. The Bio Tek Epoch (Bio Tek Instruments, Inc., Winooski, VT, United States) was used to quantify the purity and concentration of the total RNA, based on the ratio of the absorbance at 260 and 280 nm. The RNA samples, each containing 1 µg of material, were converted to complementary DNA (cDNA) using the FastKing RT Kit. The real-time PCR assays were performed using a two-step amplification protocol on the SLAN-96S Real-Time PCR system (Shanghai Hongshi Medical Technology Co., Ltd., Shanghai, China). […] was employed as an internal control, and the PCR cycling criteria were as follows: 95°C for 15 min, followed by 40 cycles of 95°C for 10 s and 60°C for 32 s.

[2] = system: CYP3A4; parameters: method as in Sorf et al., 2018; conditions: in vitro; ref Sorf et al., 2018; read-out: half-maximal inhibitory concentration (IC50) against CYP3A4; cited from earlier work
[3] = system: CYP2J2; parameters: method as in Mueck et al., 2013; conditions: ref Mueck et al., 2013; cited from earlier work

Structure (SMILES)	mRNA expression of Cyp3a1 in the liver [1]	IC50 [2] [µM]	share of total elimination by CYP2J2 [3]
CN(C)C(=O)c1cc2cnc(Nc3ccc(N4CCNCC4)cn3)nc2n1C1CCCC1 [RIBO, ribociclib]	no significant changes	[…]	–
O=C(NC[C@H]1CN(c2ccc(N3CCOCC3=O)cc2)C(=O)O1)c1ccc(Cl)s1 [RIVA, rivaroxaban]	–	–	approximately 14%
